# Source: US20250230193A1, “CYCLIC COMPOUND HAVING SELECTIVE KRAS INHIBITORY EFFECT ON HRAS AND NRAS” (CHUGAI SEIYAKU KABUSHIKI KAISHA, priority 2022, published 2025)
# Legend:
# [1] = target: GDP-bound NRAS wild-type protein (Homo sapiens, UniProt P01111); assay: Binding to NRAS by surface plasmon resonance (SPR), Single Cycle Kinetics; settings: SPR; KD ratio class
# [2] = target: GDP-bound HRAS wild-type protein (Homo sapiens, UniProt P01112); assay: Binding to HRAS by surface plasmon resonance (SPR), Single Cycle Kinetics; settings: SPR; KD ratio class
# Chain of GDP-bound HRAS wild-type protein (P01112 whole entry): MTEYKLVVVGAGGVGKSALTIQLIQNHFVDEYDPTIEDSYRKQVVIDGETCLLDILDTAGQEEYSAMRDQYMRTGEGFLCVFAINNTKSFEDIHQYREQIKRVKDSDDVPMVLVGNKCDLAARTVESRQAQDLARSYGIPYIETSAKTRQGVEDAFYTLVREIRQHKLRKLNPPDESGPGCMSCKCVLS
# [3] = tested on: human lung cancer strain NCI-H441; assay: cells; settings: NCI-H441, 96 h, read-out: NCI-H441 IC50 (nM)
# Chain of GDP-bound NRAS wild-type protein (P01111 whole entry): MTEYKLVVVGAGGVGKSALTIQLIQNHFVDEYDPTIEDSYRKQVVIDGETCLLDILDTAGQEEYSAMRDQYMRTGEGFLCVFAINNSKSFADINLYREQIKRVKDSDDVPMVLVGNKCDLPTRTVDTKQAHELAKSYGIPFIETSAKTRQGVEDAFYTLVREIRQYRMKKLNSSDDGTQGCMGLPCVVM
SMILES,IC50 [3] [nM],NRAS/KRAS (ratio of KD value for GDP-bound NRAS wild-type protein to KD value for KRAS) [1],HRAS/KRAS (ratio of KD value for GDP-bound HRAS wild-type protein to KD value for KRAS) [2]
CCO[C@@H]1C[C@H]2C(=O)NC3(CCC3)C(=O)N(C)[C@@H](C3CCCC3)C(=O)N(C)[C@H](C(=O)N(C)C)CC(=O)N(C)[C@@H](CC)C(=O)N[C@@H]([C@@H](C)CC)C(=O)N(C)CC(=O)N(C)[C@H]3C/C=C\CCN(C3=O)[C@@H](Cc3ccc(C(F)(F)F)cc3)C(=O)N(C)CC(=O)N[C@@H](CCc3ccc4sccc4c3)C(=O)N2C1 [PP1255],156,A (a compound having 10 or more and less than 20 is denoted as A),A (a compound having 10 or more and less than 20 is denoted as A)
CCO[C@@H]1C[C@H]2C(=O)NC3(CCC3)C(=O)N(C)[C@@H](C3CCCC3)C(=O)N(C)[C@H](C(=O)N(C)C)CC(=O)N(C)[C@@H](CC(C)C)C(=O)N[C@@H]([C@@H](C)CC)C(=O)N(C)CC(=O)N(C)[C@H]3C/C=C\CCN(C3=O)[C@@H](Cc3ccc(C(F)(F)F)cc3)C(=O)N(C)CC(=O)N[C@@H](CCc3ccc(Cl)c(Cl)c3)C(=O)N2C1 [PP1251],10.2,AA (a compound having 20 or more is denoted as AA),A (a compound having 10 or more and less than 20 is denoted as A)
CCO[C@@H]1C[C@H]2C(=O)NC3(CCC3)C(=O)N(C)[C@@H](C(CC)CC)C(=O)N(C)[C@H](C(=O)N(C)C)CC(=O)N(C)[C@@H](COC)C(=O)N[C@@H]([C@@H](C)CC)C(=O)N(C)CC(=O)N(C)[C@H]3C/C=C\CCN(C3=O)[C@@H](Cc3ccc(C(F)(F)F)cc3)C(=O)N(C)CC(=O)N[C@@H](CCc3ccc4sccc4c3)C(=O)N2C1 [PP1229],144,A (a compound having 10 or more and less than 20 is denoted as A),A (a compound having 10 or more and less than 20 is denoted as A)
CC[C@H](C)[C@@H]1NC(=O)[C@H](CC)N(C)C(=O)C[C@@H](C(=O)N2CCOCC2)N(C)C(=O)[C@H](C2CCCC2)N(C)C(=O)C2(CCCC2)NC(=O)[C@@H]2CCCN2C(=O)[C@H](CCc2cc(F)c(C(F)(F)F)c(F)c2)NC(=O)CN(C)C(=O)[C@H](Cc2ccc(C(F)(F)F)cc2)N2CC(C)[C@@H](C)C[C@@H](C2=O)N(C)C(=O)CN(C)C1=O (stereo partly drawn) [PP1350],20.1,B (a compound having 3 or more and less than 10 is denoted as B),B (a compound having 3 or more and less than 10 is denoted as B)
CCO[C@@H]1C[C@H]2C(=O)NC3(CCC3)C(=O)N(C)[C@@H](C3CCCC3)C(=O)N(C)[C@H](C(=O)N3CCOCC3)CC(=O)N(C)[C@@H](CC)C(=O)N[C@@H]([C@@H](C)CC)C(=O)N3CC[C@H]3C(=O)N(C)[C@H]3C[C@@H](C)[C@@H](C)CN(C3=O)[C@@H](Cc3ccc(C(F)(F)F)cc3)C(=O)N(C)CC(=O)N[C@@H](CCc3ccc(C(F)(F)F)c(Cl)c3)C(=O)N2C1 [PP1357],5.4,A (a compound having 10 or more and less than 20 is denoted as A),B (a compound having 3 or more and less than 10 is denoted as B)
CCC[C@H]1C(=O)N[C@@H]([C@@H](C)CC)C(=O)N(C)CC(=O)N(C)[C@H]2C/C=C\CCN(C2=O)[C@@H](Cc2ccc(C(F)(F)F)cc2)C(=O)N(C)CC(=O)N[C@@H](CCc2ccc(Cl)c(Cl)c2)C(=O)N2C[C@H](OCC)C[C@H]2C(=O)NC2(CCC2)C(=O)N(C)[C@@H](C(CC)CC)C(=O)N(C)[C@H](C(=O)N(C)C)CC(=O)N1C [PP1216],19.8,AA (a compound having 20 or more is denoted as AA),A (a compound having 10 or more and less than 20 is denoted as A)
CCO[C@@H]1C[C@H]2C(=O)NC3(CCC3)C(=O)N(C)[C@@H](C3CCCC3)C(=O)N(C)[C@H](C(=O)N3CCOCC3)CC(=O)N(C)[C@@H](CC(C)C)C(=O)N[C@@H]([C@@H](C)CC)C(=O)N3CC[C@H]3C(=O)N(C)[C@H]3C[C@@H](C)[C@@H](C)CN(C3=O)[C@@H](Cc3ccc(C(F)(F)F)cc3)C(=O)N(C)CC(=O)N[C@@H](CCc3cc(F)c(C(F)(F)F)c(F)c3)C(=O)N2C1 [PP1355],10.2,A (a compound having 10 or more and less than 20 is denoted as A),B (a compound having 3 or more and less than 10 is denoted as B)
CCO[C@@H]1C[C@H]2C(=O)NC3(CCC3)C(=O)N(C)[C@@H](C(CC)CC)C(=O)N(C)[C@H](C(=O)N(C)C)CC(=O)N(C)[C@@H](COC)C(=O)N[C@@H]([C@@H](C)CC)C(=O)N(C)CC(=O)N(C)[C@H]3C/C=C\CCN(C3=O)[C@@H](Cc3ccc(C(F)(F)F)cc3)C(=O)N(C)CC(=O)N[C@@H](CCc3ccc(Cl)c(Cl)c3)C(=O)N2C1 [PP1221],40.6,AA (a compound having 20 or more is denoted as AA),A (a compound having 10 or more and less than 20 is denoted as A)

# The next lines start with results.
IC50 [3] [nM],SMILES,NRAS/KRAS (ratio of KD value for GDP-bound NRAS wild-type protein to KD value for KRAS) [1],HRAS/KRAS (ratio of KD value for GDP-bound HRAS wild-type protein to KD value for KRAS) [2]
2.6,CC[C@H](C)[C@@H]1NC(=O)[C@H](CC2CC2)N(C)C(=O)C[C@@H](C(=O)N(C)CC)N(C)C(=O)[C@H](C2CCCC2)N(C)C(=O)C2(CC(C)(C)C2)NC(=O)[C@@H]2C[C@@H](F)CN2C(=O)[C@H](CCc2cc(F)c(C(F)(F)F)c(F)c2)NC(=O)CN(C)C(=O)[C@H](Cc2ccc(C(F)(F)F)cc2)N2CC/C=C\C[C@@H](C2=O)N(C)C(=O)CN(C)C1=O [PP1570],AA (a compound having 20 or more is denoted as AA),A (a compound having 10 or more and less than 20 is denoted as A)
62.5,CCO[C@@H]1C[C@H]2C(=O)NC3(CCC3)C(=O)N(C)[C@@H](C3CCCC3)C(=O)N(C)[C@H](C)CC(=O)N(C)[C@@H](CC3CCCC3)C(=O)N[C@@H]([C@@H](C)CC)C(=O)N(C)CC(=O)N(C)[C@H]3C/C=C\CCN(C3=O)[C@@H](Cc3ccc(C)cc3)C(=O)N(C)CC(=O)N[C@@H](CCc3cc(F)c(C(F)(F)F)c(F)c3)C(=O)N2C1 [PP1413],B (a compound having 3 or more and less than 10 is denoted as B),B (a compound having 3 or more and less than 10 is denoted as B)
22.2,CCO[C@@H]1C[C@H]2C(=O)NC3(CCC3)C(=O)N(C)[C@@H](C3CCCC3)C(=O)N(C)[C@H](C(=O)N(C)C)CC(=O)N(C)[C@@H](CC3CCC3)C(=O)N[C@@H]([C@@H](C)CC)C(=O)N(C)CC(=O)N(C)[C@H]3C/C=C\CCN(C3=O)[C@@H](CC3CCCCC3)C(=O)N(C)CC(=O)N[C@@H](CCc3cc(F)c(C(F)(F)F)c(F)c3)C(=O)N2C1 [PP1469],A (a compound having 10 or more and less than 20 is denoted as A),A (a compound having 10 or more and less than 20 is denoted as A)
14.1,CCO[C@@H]1C[C@H]2C(=O)NC3(CCC3)C(=O)N(C)[C@@H](C3CCCC3)C(=O)N(C)[C@H](C(=O)N3CCOCC3)CC(=O)N(C)[C@@H](CC3CCC3)C(=O)N[C@@H]([C@@H](C)CC)C(=O)N(C)CC(=O)N(C)[C@H]3C/C=C\CCN(C3=O)[C@@H](Cc3ccc(C(F)(F)F)cc3)C(=O)N(C)CC(=O)N[C@@H](CCc3cc(F)c(C(F)(F)F)c(F)c3)C(=O)N2C1 [PP1422],AA (a compound having 20 or more is denoted as AA),A (a compound having 10 or more and less than 20 is denoted as A)
37.6,CCO[C@@H]1C[C@H]2C(=O)NC3(CCC3)C(=O)N(C)[C@@H](C3CCCC3)C(=O)N(C)[C@H](C(=O)N3CCOCC3)CC(=O)N(C)[C@@H](CC3CC3)C(=O)N[C@@H]([C@@H](C)CC)C(=O)N(C)CC(=O)N(C)[C@H]3C/C=C\CCN(C3=O)[C@@H](Cc3ccc(C)cc3)C(=O)N(C)CC(=O)N[C@@H](CCc3cc(F)c(C(F)(F)F)c(F)c3)C(=O)N2C1 [PP1408],A (a compound having 10 or more and less than 20 is denoted as A),A (a compound having 10 or more and less than 20 is denoted as A)
13.4,CCO[C@@H]1C[C@H]2C(=O)NC3(CCC3)C(=O)N(C)[C@@H](C3CCCC3)C(=O)N(C)[C@H](C(=O)N(C)C)CC(=O)N(C)[C@@H](CC(C)C)C(=O)N[C@@H]([C@@H](C)CC)C(=O)N(C)CC(=O)N(C)[C@H]3C/C=C\CCN(C3=O)[C@@H](Cc3ccc(F)cc3C)C(=O)N(C)CC(=O)N[C@@H](CCc3cc(F)c(C(F)(F)F)c(F)c3)C(=O)N2C1 [PP1532],A (a compound having 10 or more and less than 20 is denoted as A),B (a compound having 3 or more and less than 10 is denoted as B)
38.7,CCO[C@@H]1C[C@H]2C(=O)NC3(CCC3)C(=O)N(C)[C@@H](C(CC)CC)C(=O)N(C)[C@H](C(=O)N(C)C)CC(=O)N(C)[C@@H](CC3CC3)C(=O)N[C@@H]([C@@H](C)CC)C(=O)N(C)CC(=O)N(C)[C@H]3C/C=C\CCN(C3=O)[C@@H](CC3CCC(F)(F)CC3)C(=O)N(C)CC(=O)N[C@@H](CCc3cc(F)c(C(F)(F)F)c(F)c3)C(=O)N2C1 [PP1429],AA (a compound having 20 or more is denoted as AA),A (a compound having 10 or more and less than 20 is denoted as A)
